The source of these data is patent US4335108A, “Paulomycin A and B and preparation thereof” (The Upjohn Company, priority 1980, dated 1982).

In brackets after ≈: the same amount, converted by molar mass.

One series concerns S. aureus 6685. Description: Antibacterial microplate agar assay (MIC). In kind it is cell-based, Staphylococcus aureus. The settings on record: PYG agar, pH 6, 24 hours, 28° to 37° C. As for the experimental part:
(§1) The antibacterial assay is a standard microplate agar assay using PYG agar, pH 6. PYG agar consists of the following ingredients:
(§2) The MIC is determined by standard methods. The inocula are overnight cultures of the test organisms, diluted so that the final population contains approximately 10^5 cells/ml. The agar plates are incubated at 28° to 37° C. for 24 hours. The lowest antibiotic concentration which allows no growth=MIC or minimum inhibitory concentration.
(§3) Assay. The antibacterial assay is a standard microplate agar assay using PYG agar, pH 6. The MIC is determined by standard methods. The inocula are overnight cultures of the test organisms, diluted so that the final population contains approximately 10^5 cells/ml. The agar plates are incubated at 28° to 37° C. for 24 hours. The lowest antibiotic concentration which allows no growth=MIC or minimum inhibitory concentration.

The test system of the next series is S. aureus 6690. Description: Antibacterial microplate agar assay (MIC). Particulars: PYG agar, pH 6, 24 hours, 28° to 37° C. In kind it is cell-based, Staphylococcus aureus. On the procedure:
as §1, §2, §3

Another series concerns S. aureus UC 76. Briefly: Antibacterial microplate agar assay (MIC). The format is cell-based, Staphylococcus aureus. Particulars: PYG agar, pH 6, 24 hours, 28° to 37° C. As for the experimental part:
as §1, §2, §3

Another series has as its system S. faecalis 694. Briefly: Antibacterial microplate agar assay (MIC). In kind it is cell-based, Streptococcus faecalis. Particulars: PYG agar, pH 6, 24 hours, 28° to 37° C. As for the experimental part: as §1, §2, §3
For a further series, the system named is E. cloacae 6783. Description: Antibacterial microplate agar assay (MIC). Particulars: PYG agar, pH 6, 24 hours, 28° to 37° C. In kind it is cell-based. As for the experimental part: as §1, §2, §3
In a further series the test system is E. coli 45. Briefly: Antibacterial microplate agar assay (MIC). The format is cell-based. The settings on record: PYG agar, pH 6, 24 hours, 28° to 37° C. As for the experimental part:
as §1, §2, §3

The subject of another series is Enterococcus sp. 701. Description: Antibacterial microplate agar assay (MIC). The format is cell-based. The settings on record: PYG agar, pH 6, 24 hours, 28° to 37° C. As for the experimental part: as §1, §2, §3
The subject of the next series is K. pneumoniae 58. Description: Antibacterial microplate agar assay (MIC). The format is cell-based. Particulars: PYG agar, pH 6, 24 hours, 28° to 37° C. On the procedure:
as §1, §2, §3

Another series relates to P. stuartii 6570. Briefly: Antibacterial microplate agar assay (MIC). The format is cell-based. The settings on record: PYG agar, pH 6, 24 hours, 28° to 37° C. As for the experimental part:
as §1, §2, §3

The test system of another series is Ps. aeruginosa 95. Briefly: Antibacterial microplate agar assay (MIC). In kind it is cell-based. Particulars: PYG agar, pH 6, 24 hours, 28° to 37° C. On the procedure:
as §1, §2, §3

In a further series the test system is S. flexneri 143. Description: Antibacterial microplate agar assay (MIC). The format is cell-based. The settings on record: PYG agar, pH 6, 24 hours, 28° to 37° C. On the procedure:
as §1, §2, §3

For another series, the system named is S. marcescens 131. Description: Antibacterial microplate agar assay (MIC). In kind it is cell-based. The settings on record: PYG agar, pH 6, 24 hours, 28° to 37° C. As for the experimental part: as §1, §2, §3
The test system of another series is S. schottmuelleri 126. Briefly: Antibacterial microplate agar assay (MIC). In kind it is cell-based. Particulars: PYG agar, pH 6, 24 hours, 28° to 37° C. On the procedure:
as §1, §2, §3

Another series relates to Gram-positive bacteria. Briefly: Antibacterial activity against Gram-positive bacteria. In kind it is cell-based. As for the experimental part:
as §1, §2, §3

Another series deals with L-1210. Description: Antitumor (in vitro) activity. In kind it is cell-based. The settings on record: L-1210, in vitro.
For series [1] the following is noted: 60% aq. ethanol.

In the case of `C/C=C(\N=C=S)C(=O)O[C@H]1[C@@H](O[C@H]2C[C@H](OC)[C@@](O)([C@H](C)OC(=O)C(C)C)[C@H](C)O2)[C@@H](O)[C@H]([C@@]2(O)CC(=O)C(=N)C(C(=O)O)=C2O)O[C@@H]1COC(C)=O` [Paulomycin B], the “Minimum Inhibitory Concentration” value in the series on S. aureus 6685 was 0.50 µg/mL; in the series with S. aureus 6690 it was 2.0 µg/mL; in the series on S. aureus UC 76 it was 0.50 µg/mL; with S. faecalis 694 it was 125 µg/mL; in the series with E. cloacae 6783 it was 500 µg/mL; in the series on E. coli 45, 250 µg/mL. The “Minimum Inhibitory Concentration” value with Enterococcus sp. 701 was found to be 31.2 µg/mL; in the series with K. pneumoniae 58, 250 µg/mL; in the series on P. stuartii 6570, 250 µg/mL; in the series with Ps. aeruginosa 95, 250 µg/mL; in the series on S. flexneri 143, 250 µg/mL; in the series on S. marcescens 131, 250 µg/mL. For the same compound, the “Minimum Inhibitory Concentration” value with S. schottmuelleri 126 amounted to 500 µg/mL. In addition, the “adversely affecting the growth of Gram-positive bacteria” value in the series on Gram-positive bacteria (for example Bacillus subtilis, Staphylococcus aureus, Streptococcus pyogenes and Streptococcus faecalis) is listed as “adversely affecting the growth of Gram-positive bacteria”. In the series on Gram-positive bacteria (in words), the “activity against various Gram-positive bacteria” value is reported as “active against various Gram-positive bacteria”. The ID50 in the series on L-1210 stood at 8.6 µg/mL (≈ 11.1 µM). For the same compound, the ID90 in the series on L-1210 was found to be 21 µg/mL (≈ 27.2 µM). Also, the pKa in [1] is recorded as 7.4.

The term pKa denotes the pH at which an ionisable group is half protonated.
